In patent US20190022117A1, “COMBINATION THERAPY” (NuCana plc, priority 2015, published 2019):
Like-named read-outs stand apart in the source and are kept apart here.

How the values were obtained:
5637 = test: CellTiter-Glo cytotoxicity assay, single agents (Stage 1); assay type: cell-based; conditions: CTG assay 72 h
Procedure: (§1) A2780, SK-OV-3, OVCAR-3, NCI-H460, NCI-H1975, NCI-H2122, 5637 and HT1376 were cultured in RPMI Medium 1640 (Invitrogen-22400105) supplemented with 10% fetal bovine serum (FBS; Invitrogen-10099141). All the cell lines were maintained in a humidified incubator at 37° C. with 5% CO2. Cell culture media and supplements were purchased from Invitrogen, and tissue culture flasks were purchased from Corning, 96-well plates and 384-well plates were purchased from Greiner. CellTiter-Glo Luminescent Cell Viability Assay kits were purchased from Promega (Promega-G7573), cells counter Vi-Cell was purchased from Beckman, detection instrument Envision was purchased from PerkinElmer.
(§2) Paclitaxcel (used as a reference) and cisplatin were purchased from SELLECK, and they were of highest purity available. All compounds attained solubility in DMSO and when diluted into culture media. DMSO, compounds solutions and culture media were warmed to 37° C. for the solution preparation and dilutions.
(§3) Eight cell lines were allowed to adhere to 96-well plates overnight (100 μL/well), for drug treatments with 3.16 fold dilution, 9 dose points, triplicates or vehicle control, compound stock solutions were prepared in DMSO and added to the wells to give the indicated final drug concentrations. Final DMSO concentration was 0.5%. Cellular ATP concentrations were assessed by using the CellTiter-Glo Cell Viability Assay as per the manufacturer's instructions 72 h after drug addition.
(§4) In Stage 1 the IC50 (using 5 or more concentrations) of each individual compound (cisplatin, gemcitabine and NUC-1031) in the relevant cell lines was determined.

A2780 = test: as above; assay type: cell-based; conditions: CTG assay 72 h
Procedure: as §1, §2, §3, §4

HT1376 = test: as above; assay type: cell-based
Procedure: as §1, §2, §3, §4

NCI-H1975 = test: as above; assay type: cell-based; conditions: CTG assay 72 h
Procedure: as §1, §2, §3, §4

NCI-H460 = test: as above; assay type: cell-based; conditions: CTG assay 72 h
Procedure: as §1, §2, §3, §4

OVCAR-3 = test: as above; assay type: cell-based; conditions: CTG assay 72 h
Procedure: as §1, §2, §3, §4

SK-OV3 = test: as above; assay type: cell-based
Procedure: as §1, §2, §3, §4

HT1376 (Bladder) = test: CellTiter-Glo combination analysis (Stage 2); assay type: cell-based; conditions: cisplatin alone dose-effect curve
Procedure: A2780, SK-OV-3, OVCAR-3, NCI-H460, NCI-H1975, NCI-H2122, 5637 and HT1376 were cultured in RPMI Medium 1640 (Invitrogen-22400105) supplemented with 10% fetal bovine serum (FBS; Invitrogen-10099141). All the cell lines were maintained in a humidified incubator at 37° C. with 5% CO2. Cell culture media and supplements were purchased from Invitrogen, and tissue culture flasks were purchased from Corning, 96-well plates and 384-well plates were purchased from Greiner. CellTiter-Glo Luminescent Cell Viability Assay kits were purchased from Promega (Promega-G7573), cells counter Vi-Cell was purchased from Beckman, detection instrument Envision was purchased from PerkinElmer. 8 cell lines were allowed to adhere to 384 well plates overnight (60 μL/well), for combination study, four combinations of two compounds will be investigated twice, keeping one compound at a fixed concentration while increasing the concentration of the second compound (10 fold dilution, 5 dose points), compound stock solutions were prepared in DMSO and added to the wells to give the indicated final drug concentrations by D300e digital dispenser. […] Cellular ATP concentrations were assessed by using the CellTiter-Glo Cell Viability Assay as per the manufacturer's instructions 72 hours after drug addition. Stage 2 determined the interaction of selected combinations of compounds on cancer cell growth. […]

SKOV3 cells = test: Sulforhodamine B (SRB) assay, single agent; assay type: cell-based; conditions: SRB assay on day 4, read-out: IC50
Procedure: SKOV3 cells were purchased from American Type Culture Collection (ATCC). They were cultured at 37° C. and 5% CO2 in Gibco™ RMPI Medium 1640+GlutaMAX™-I (Life Technologies; 61870-010) with 10% Gibco™ FBS (Life Technologies; 10270-106) and 1% Gibco™ Penicillin-Streptomycin (Life Technologies; Ser. No. 15/140,122), known as complete medium, in a cell culture flask. Cisplatin was purchased from TEVA UK Limited (PL 00289/1146). Fluvastatin and Sulforaphane were both purchased from Merck Millipore Corporation (Catalogue numbers 344096 and 574215 respectively). (S)-NUC-1031 was provided by NuCana® Ltd.
SKOV3 cells were plated at 250 cells in 200 μl per well in the middle 60 wells of Costar® 3596 96-well plates, with the outer 36 wells filled with 200 μl PBS each. The cells were allowed to grow in complete medium for 48 hours before different drug compounds were added in. For single agent, cisplatin, (S)-NUC-1031, fluvastatin and sulforaphane in complete medium at 10 different concentrations were added into the middle 60 wells (Day 0). Each concentration was loaded in sextuplicate. Cells were exposed to the compounds for 24 hours and the compounds were replaced by pure complete medium. The experiment with fluvastatin was repeated with 4-day exposure instead of 24 hours. The plates were fixed with 50 μl 25% TCA solution at 4° C. for 60 minutes on day 4 after the drug compounds were added for Sulforhodamine B assay (see below).
After adding the TCA solution, the plates were washed under running tap water 10 times and were allowed to dry in the oven at 50° C. The cells were then stained with 50 μl SRB dye, and the dye was washed off with 1% glacial acetic acid for 4 times 30 minutes after SRB addition. The plates were then dried in the oven. SRB dye was allowed to dissolve in 150 μl 10 mM Tris buffer solution for 60 minutes on a rocker. The plates were read on Biohit BP800 Microplate Reader (Biohit Healthcare) and the absorbance was measured at 540 nm. […]

biliary tract cancer = conditions: cited from earlier work
[1] = absolute IC50, read-out: Ab IC50
[2] = CTG assay 72 h, absolute IC50, read-out: Ab IC50
[3] = CTG assay 72 h, relative IC50, read-out: IC50
[4] = Homo sapiens, absolute IC50, read-out: Ab IC50
[5] = Homo sapiens, relative IC50, read-out: IC50

For `N.N.[Cl][Pt][Cl]` [Cisplatin, cisplatin], the “Max Inhibition_%” value 5637 was 101.74%, the IC50 5637; [1] was 13.7 µM and the IC50 (5637; relative IC50, read-out: IC50) was 13.2 µM. For the same compound, the “Max Inhibition_%” value (A2780) was 99.05%, the IC50 (A2780; [1]) was 11 µM and the IC50 (A2780; relative IC50, read-out: IC50) was 10.1 µM. For the same compound, the “Max Inhibition_%” value (HT1376; CTG assay 72 h) was 71.90%, the IC50 (HT1376; [2]) was 20.5 µM and the IC50 (HT1376; [3]) was 18.4 µM. The “Max Inhibition_%” value (NCI-H1975) was 103.60%, the IC50 (NCI-H1975; [1]) was 69.5 µM and the IC50 (NCI-H1975; relative IC50, read-out: IC50) was 69.2 µM. For the same compound, the “Max Inhibition_%” value (NCI-H460) was 97.56%, the IC50 (NCI-H460; [1]) was 2.59 µM and the IC50 (NCI-H460; relative IC50, read-out: IC50) was 2.57 µM. The “Max Inhibition_%” value (OVCAR-3) was 79.59%, the IC50 (OVCAR-3; [1]) was 28.3 µM and the IC50 (OVCAR-3; relative IC50, read-out: IC50) was 23.5 µM. For the same compound, the “Max Inhibition_%” value (SK-OV3; CTG assay 72 h) was 86.42%, the IC50 (SK-OV3; [2]) was 45.6 µM and the IC50 (SK-OV3; [3]) was 33.7 µM. It also gave an IC50 (HT1376 (Bladder); listed as Cisplatin 2, read-out: IC50 (curve shift method)) of 58 µM, an IC50 (HT1376 (Bladder); read-out: IC50 (curve shift method)) of 64.5 µM and an IC50 (SKOV3 cells; 24 hours exposure) of 2.44 µM.
For `Nc1ccn([C@@H]2O[C@H](CO)[C@@H](O)C2(F)F)c(=O)n1` [Gemcitabine], the “Max Inhibition_%” value 5637 was 84.49%, the IC50 5637; [1] was 0.01 µM and the IC50 (5637; relative IC50, read-out: IC50) was 0.01 µM. The “Max Inhibition_%” value (A2780) was 81.15%, the IC50 (A2780; [4]) was 0.01 µM and the IC50 (A2780; [5]) was 0.01 µM. The “Max Inhibition_%” value (HT1376; CTG assay 72 h) was 9.60%, the IC50 (HT1376; Homo sapiens, HT-1376, CTG assay 72 h, absolute IC50, read-out: Ab IC50) was greater than 1.98 µM and the IC50 (HT1376; Homo sapiens, HT-1376, CTG assay 72 h, relative IC50, read-out: IC50) was greater than 1.98 µM. For the same compound, the “Max Inhibition_%” value (NCI-H1975) was 62.12%, the IC50 (NCI-H1975; [4]) was 0.08 µM and the IC50 (NCI-H1975; [5]) was 0.02 µM. The “Max Inhibition_%” value (NCI-H460) was 96.28%, the IC50 (NCI-H460; [4]) was 0.01 µM and the IC50 (NCI-H460; [5]) was 0.01 µM. The “Max Inhibition_%” value (OVCAR-3) was 6.95%, the IC50 (OVCAR-3; [4]) was greater than 1.98 µM and the IC50 (OVCAR-3; [5]) was 0.02 µM. For the same compound, the “Max Inhibition_%” value (SK-OV3; CTG assay 72 h) was 65.74%, the IC50 (SK-OV3; Homo sapiens, SK-OV-3, CTG assay 72 h, absolute IC50, read-out: Ab IC50) was 0.02 µM and the IC50 (SK-OV3; Homo sapiens, SK-OV-3, CTG assay 72 h, relative IC50, read-out: IC50) was 0.02 µM. The “overall survival (median)” value (biliary tract cancer; ABC-02, 410 patients with BTC) was 8.1 months and the “progression-free survival (median)” value (biliary tract cancer; ABC-02, patients with BTC) was 5 months.
`C[S+]([O-])CCCCN=C=S` (stereo not drawn) [sulforaphane, Sulforaphane] gave an IC50 (SKOV3 cells; Homo sapiens, SK-OV-3, 24 hours exposure) of 7 µM.
